Assay results taken from patent US9867795B2, “Nitrated lipids and methods of making and using thereof” (The UAB Research Foundation, priority 2004, dated 2018).
Entries after “also recorded” stand apart in the source; their conditions may differ.

How the values were obtained:
[1] = target: T1, hPPARγ (Homo sapiens, UniProt P37231); assay: CV-1 PPRE×3 TK-Luciferase transient transfection assay; format: cell-based; conditions: GW9662 added 1 hr prior to nitrated fatty acid
T1 construct: For assessing full-length PPAR receptors, CV-1 cells were transiently co-transfected; expressed in transfected cells; host or cells: CV-1 cells
T1 sequence (P37231 1-505): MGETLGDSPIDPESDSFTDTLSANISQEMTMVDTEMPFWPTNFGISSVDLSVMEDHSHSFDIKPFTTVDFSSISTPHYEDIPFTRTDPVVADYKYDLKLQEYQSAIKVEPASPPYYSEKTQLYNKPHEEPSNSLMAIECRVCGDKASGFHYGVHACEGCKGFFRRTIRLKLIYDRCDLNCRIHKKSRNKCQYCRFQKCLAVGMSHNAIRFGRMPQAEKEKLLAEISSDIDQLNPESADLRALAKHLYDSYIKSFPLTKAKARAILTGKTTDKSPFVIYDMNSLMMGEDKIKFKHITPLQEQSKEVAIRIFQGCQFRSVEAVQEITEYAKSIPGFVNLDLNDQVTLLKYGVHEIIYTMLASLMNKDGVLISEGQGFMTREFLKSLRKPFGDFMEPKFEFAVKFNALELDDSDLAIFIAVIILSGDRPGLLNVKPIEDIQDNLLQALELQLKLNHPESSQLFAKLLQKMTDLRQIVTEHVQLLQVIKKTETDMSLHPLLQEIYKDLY
Source text: Cell Transient Transfection Assay. […] Then, cells were transiently co-transfected with a plasmid containing the luciferase gene under regulation by four Gal4 DNA binding elements (UASG×4 TK-Luciferase, a gift from Dr. Ronald M. Evans), in concert with plasmids containing the ligand binding domain for the different nuclear receptors fused to the Gal4 DNA binding domain. For assessing full-length PPAR receptors, CV-1 cells were transiently co-transfected with a plasmid containing the luciferase gene under the control of three tandem PPAR response elements (PPRE) (PPRE×3 TK-Luciferase) and hPPARγ, hPPARα or hPPARδ expression plasmids, respectively. In all cases, fluorescence protein (GFP) expression plasmid was co-transfected as the control for the transfection efficiency. Twenty-four hours after the transfection, cells were cultured for another 24 hours in Optium-MEM (Invitrogen, Carlsbad, Calif.). Then, cells were treated with different compounds as indicated in figures for 24 hours in Optium-MEM. Reporter luciferase assay kits from Promega (Madison, Wis.) were used to measure the luciferase activity according to the manufacturer's instructions with a luminometer (Victor II, Perkin-Elmer). Luciferase activity was normalized by GFP units. Each condition was performed at least in triplicates in each experiment.
PPAR transient transfection assay. […] Twelve hours before transfection, the media was removed and antibiotic-free media was applied. Cells were transiently co-transfected with a plasmid containing the luciferase gene under the control of three tandem PPAR response elements (PPRE) (PPRE×3 TK-Luciferase) and PPARγ, PPARα or PPARδ expression plasmids, respectively. In all cases, fluorescence protein (GFP) expression plasmid was co-transfected as the control for transfection efficiency. Twenty-four hours after transfection, cells the returned to OptiMEM (Invitrogen, Carlsbad, Calif.) for 24 hr and then treated as indicated for another 24 hr. Reporter luciferase assay kits from Promega (Madison, Wis.) were used to measure the luciferase activity according to the manufacturer's instructions with a luminometer (Victor II, Perkin-Elmer). Luciferase activity was normalized by GFP units. Each condition was performed in triplicate in each experiment (n>3).

[2] = test system: 3T3-L1 adipocytes; assay: [^3H]-2-Deoxy-D-glucose uptake assay in differentiated 3T3-L1 adipocytes; format: cell-based; conditions: GW9662 added 1 h before nitrated lipids or Rosiglitazone
Procedure: [^3H]-2-Deoxy-D-glucose Uptake Assay in Differentiated 3T3-L1 Adipocyte. [^3H]-2-Deoxy-D-glucose uptake assay as previously described (19) 3T3-L1 preadipocytes were grown in 24-well tissue culture plates, 2-day postconfluent preadipocytes were treated by 10 μg/ml insulin (Sigma), 1 μM dexamethasone (Sigma), and 0.5 mM 3-isobutyl-1-methylxanthine (Sigma) in DMEM containing 10% FBS for two days, then cells were kept in 10 μg/ml insulin also in DMEM containing 10% FBS for 6 days (changed medium every three days). Eight days after induction of adipogenesis, test compounds in DMEM containing 10% FBS were added for an additional 2 days (changed medium every day) and PPARγ-specific antagonist GW9662 were pretreated 1 h before other additions. After two rinses with serum-free DMEM, cells were incubated for 3 h in serum-free DMEM and rinsed at room temperature three times with freshly prepared KRPH buffer (5 mM phosphate buffer, 20 mM HEPES, 1 mM MgSO4, 1 mM CaCl2, 136 mM NaCl, 4.7 mM KCl, pH 7.4). The buffer was replaced with 1 μCi/ml of [^3H]-2-deoxy-D-glucose in KRPH buffer for 10 min at room temperature. The treated cells were rinsed carefully three times with cold PBS, lysed overnight in 0.8N NaOH (0.4 ml/well), and neutralized with […] of 12N HCl. Lysate (360 μl) was added to 4 ml Scinti-Safe Plus TM 50% in a scintillation vial, and the vials were mixed and counted.
[^3H]-2-Deoxy-D-glucose uptake assay in differentiated 3T3-L1 adipocytes. [^3H]-2-deoxy-D-glucose uptake was analyzed as previously (23). […] Cells were then rinsed three times with cold PBS, lysed overnight in 0.8 N NaOH (0.4 ml/well), neutralized with 26.6 μl of 12 N HCl and 360 μl of lysate was added into 4 ml Scinti-Safe Plus™ 50% for radioactivity determination by liquid scintillation counting.

[3] = test system: mouse RAW264.7 macrophages; assay: CD36 expression in macrophages (immunoblot, real-time PCR); conditions: GW9662 added 1 h prior to treatment

## O=C(Nc1ccccc1)c1cc([N+](=O)[O-])ccc1Cl [GW9662, reference compound]
[1]
  effect of GW9662 on nitrated fatty acid-mediated PPARγ activation: inhibited in a dose-dependent manner; also recorded: partially inhibited; also recorded: partially yet significantly blocked
[2]
  effect of GW9662 on induced glucose uptake: partially inhibited; also recorded: significantly inhibited
[3]
  effect of GW9662 on LNO2-induced CD36 expression: partially inhibitable
